Assay results as given in ChEMBL document CHEMBL4480419, “Design and molecular modeling of novel P38α MAPK inhibitors targeting breast cancer, synthesized from oxygen heterocyclic natural compounds” (Bioorg Med Chem, 2019).
pIC50: −log10 of the molar value. Calls of active or inactive are those of the source. No cut-off for these calls is given here.

Legend:
[1] = tested on: MDA-MB-231; assay: Antiproliferative activity against human MDA231 cells after 72 hrs by MTT assay; type: functional, cell-based; conditions: MDA-MB-231, 72 h
[2] = tested on: MCF7; assay: Antiproliferative activity against human MCF7 cells after 72 hrs by MTT assay; type: functional, cell-based; conditions: MCF7, 72 h
[3] = target: MAP kinase p38 (Homo sapiens, UniProt O15264+Q15759+Q16539+P53778); assay: Inhibition of p38alpha MAPK (unknown origin) using ATF-2 as substrate after 1 hr by ELISA; type: protein assay
[4] = tested on: MCF7; assay: Induction of apoptosis in human MCF7 cells assessed as increase in caspase-7 mRNA expression after 48 hrs by RT-PCR analysis; type: functional, cell-based
[5] = tested on: MCF7; assay: Cell cycle arrest in human MCF7 cells assessed as accumulation of cells at G1 phase after 48 hrs by propidium iodide staining-based flow cytometric analysis (reference value: 53.94%); type: functional
[6] = tested on: MCF7; assay: Induction of apoptosis in human MCF7 cells assessed as increase in caspase-7 activity by ELISA; type: functional, cell-based
[7] = tested on: MCF7; assay: Induction of apoptosis in human MCF7 cells assessed as late apoptotic cells after 48 hrs by Annexin V-FITC/propidium iodide staining-based flow cytometric analysis (reference value: 0.52%); type: functional
[8] = tested on: MCF7; assay: Induction of apoptosis in human MCF7 cells assessed as early apoptotic cells after 48 hrs by Annexin V-FITC/propidium iodide staining-based flow cytometric analysis (reference value: 0.85%); type: functional
[9] = tested on: MCF7; assay: Cell cycle arrest in human MCF7 cells assessed as accumulation of cells at S phase after 48 hrs by propidium iodide staining-based flow cytometric analysis (reference value: 39.38%); type: functional
[10] = tested on: MCF7; assay: Cell cycle arrest in human MCF7 cells assessed as accumulation of cells at preG phase after 48 hrs by propidium iodide staining-based flow cytometric analysis (reference value: 1.71%); type: functional
[11] = tested on: MCF7; assay: Cell cycle arrest in human MCF7 cells assessed as accumulation of cells at G2/M phase after 48 hrs by propidium iodide staining-based flow cytometric analysis (reference value: 6.68%); type: functional
[12] = tested on: MCF7; assay: Induction of apoptosis in human MCF7 cells assessed as necrotic cells after 48 hrs by Annexin V-FITC/propidium iodide staining-based flow cytometric analysis (reference value: 0.34%); type: functional

Structure (SMILES) | pIC50 [1] | pIC50 [2] | other results
COc1c(C(=O)/C=C/c2ccc(C)o2)c(O)c(CN2CCOCC2)c2occc12 | < 4.00 | < 4.00 | 
COc1c(C(=O)/C=C/c2ccc(C)o2)c(O)c(CN2CCN(C)CC2)c2occc12 | < 4.00 | 5.31 | 
COc1c(C(=O)/C=C/c2ccc(C)o2)c(O)c(Br)c2occc12 | 5.68 | 5.87 | IC50 [3]: 0.041 µM
COc1c(-c2cc(-c3ccc(C)o3)[nH]c(=S)n2)c(O)c(Br)c2occc12 | 5.70 | 5.82 | 
COc1c(-c2cc(-c3ccc(C)o3)[nH]c(=S)n2)c(O)c(CN2CCN(C)CC2)c2occc12 | < 4.00 | 5.24 | 
Cc1cc(=O)c2c(OCC(=O)NNC(=S)Nc3ccccc3)c3ccoc3cc2o1 | < 4.00 | 5.61 | 
Cc1cc(=O)c2c(OCc3nnc(SCCN4CCOCC4)s3)c3ccoc3cc2o1 | < 4.00 | 5.56 | 
COc1c(-c2cc(-c3ccc(C)o3)[nH]c(=O)n2)c(O)c(Br)c2occc12 | 5.91 | 5.71 | 
Cc1cc(=O)c2c(OCc3nnc(S)s3)c3ccoc3cc2o1 | 5.15 | 5.78 | 
COc1c(C(=O)/C=C/c2ccc(C)o2)c(O)c(CN2CCCCC2)c2occc12 | < 4.00 | < 4.00 | 
Cc1cc(=O)c2c(OCc3nnc(SCCN4CCOCC4)o3)c3ccoc3cc2o1 | 5.06 | 5.42 | 
Cc1cc(=O)c2c(OCc3nnc(S)o3)c3ccoc3cc2o1 | 4.91 | 4.88 | 
COc1c(-c2cc(-c3ccc(C)o3)c(C#N)c(N)n2)c(O)c(Br)c2occc12 | 5.58 | 5.93 | Activity [4]: Active; IC50 [3]: 0.04 µM; Activity [5]: 41.56%; Activity [6]: Active; Activity [7]: 9.2%; Activity [8]: 5.36%; Activity [9]: 34.81%; Activity [10]: 16.69%; Activity [11]: 23.63%; Activity [12]: 2.13%
COc1c(-c2cc(-c3ccc(C)o3)[nH]c(=S)n2)c(O)c(CN2CCCCC2)c2occc12 | < 4.00 | < 4.00 | 
Cc1cc(C)n(C(=O)COc2c3ccoc3cc3oc(C)cc(=O)c23)n1 | < 4.00 | 5.60 | 
CS(=O)(=O)CCNCc1ccc(-c2ccc3ncnc(Nc4ccc(OCc5cccc(F)c5)c(Cl)c4)c3c2)o1 [LAPATINIB] | 5.33 | 5.33 | 
COc1c(-c2cc(-c3ccc(C)o3)[nH]c(=S)n2)c(O)c(CN2CCOCC2)c2occc12 | < 4.00 | 5.15 | 
